Here are results for two molecules from US7592168B2, “Cephalosporin C acylase mutant and method for preparing 7-ACA using same” (Sandoz AG, priority 2003, dated 2009).

Positions count from the first letter of the chain named.

Assay type in all cases: biochemical
Assay [1] has as its target T1, Pseudomonas sp. SE83 CPC acylase AcyII sixfold mutant S12, V121αA/G139αS/F58βN/I75βT/I176βV/S471βC (alpha-subunit SEQ ID NO: 7, beta-subunit SEQ ID NO: 8) (Pseudomonas sp., UniProt P15558, F297N/G140S/I314T/I415V/S710C/V122A).
T1 construct: made in house; host or cells: E. coli MC1061
T1 sequence (P15558 2-230 V122A/G140S): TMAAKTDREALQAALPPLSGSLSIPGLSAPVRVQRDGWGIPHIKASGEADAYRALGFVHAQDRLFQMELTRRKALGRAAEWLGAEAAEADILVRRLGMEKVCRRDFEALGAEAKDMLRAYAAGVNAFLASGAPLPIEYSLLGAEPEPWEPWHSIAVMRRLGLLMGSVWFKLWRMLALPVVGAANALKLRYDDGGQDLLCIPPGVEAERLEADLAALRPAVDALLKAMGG
T1 sequence (P15558 240-774 F297N/I314T/I415V/S710C): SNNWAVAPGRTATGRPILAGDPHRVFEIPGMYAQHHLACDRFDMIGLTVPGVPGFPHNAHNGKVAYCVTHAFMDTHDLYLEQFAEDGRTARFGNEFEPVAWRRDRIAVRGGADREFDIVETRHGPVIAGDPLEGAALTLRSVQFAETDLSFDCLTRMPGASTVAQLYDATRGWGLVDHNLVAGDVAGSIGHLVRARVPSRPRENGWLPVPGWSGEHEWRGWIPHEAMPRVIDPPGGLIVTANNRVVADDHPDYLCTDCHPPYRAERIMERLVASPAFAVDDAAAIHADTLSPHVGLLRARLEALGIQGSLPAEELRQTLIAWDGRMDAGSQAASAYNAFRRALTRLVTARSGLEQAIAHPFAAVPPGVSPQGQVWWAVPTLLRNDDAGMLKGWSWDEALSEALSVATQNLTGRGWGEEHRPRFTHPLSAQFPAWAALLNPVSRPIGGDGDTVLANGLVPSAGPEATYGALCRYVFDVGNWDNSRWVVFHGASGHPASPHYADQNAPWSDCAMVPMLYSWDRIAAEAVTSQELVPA
The assay can be described thus: End-product inhibition by 7-ACA (inhibition constant), S12 sixfold mutant. To be noted: end-product inhibition of CPC conversion; purified enzyme; pH 8.5. As to the method:
(§1) The enzyme activity of CPC acylase mutant to CPC was measured according to the method described by Park et al. with minor modifications as follows (Park, et al., Kor. J. Appl. Microbiol. Biotechnol. 23: 559-564, 1995). A substrate solution was prepared by dissolving CPC (purity 74.2%; CJ Corp., Korea) in 0.1 M Tris-HCl buffer solution (pH 8.0) at a concentration of 20 mg/ml and adjusting pH to 8 with 1 N NaOH. 20 μl of the CPC solution was mixed with 20 μl of the crude enzyme solution prepared above and the reaction mixture was incubated at 37° C. for 5 min. After the reaction, the mixture (200 μl) of 50 mM NaOH and 20% glacial acetic acid (1:2) was added thereto to stop the reaction. 200 μl of the supernatant recovered from the reaction mixture by centrifugation was mixed with 40 μl of 0.5% (w/v) PDAB (p-dimethylaminobenzaldehyde; Sigma, USA) dissolved in a methanol and the reaction mixture was incubated at 37° C. for 10 min. After the reaction, the absorbance of reaction mixture was measured at 415 nm and quantified by comparing with a calibration curve of standard material. […] Meanwhile, the specific activity of CPC acylase mutant for CPC was determined by measuring the amount of protein remaining in the enzyme solution according to the method described by Bradford (Bradford, M., Anal. Biochem. 72: 248-254, 1976) and representing it as an active unit corresponding to 1 mg of protein. […]

The target of assay [2] is T2, Pseudomonas sp. SE83 CPC acylase AcyII, wild type, SEQ ID NO: 2 (alpha-subunit SEQ ID NO: 4, beta-subunit SEQ ID NO: 5) (Pseudomonas sp., UniProt P15558).
T2 construct: made in house; host or cells: E. coli MC1061
T2 sequence (P15558 2-230): T1 sequence (P15558 2-230 V122A/G140S) with A121V, S139G
T2 sequence (P15558 240-774): T1 sequence (P15558 240-774 F297N/I314T/I415V/S710C) with N58F, T75I, V176I, C471S
The assay can be described thus: End-product inhibition by 7-ACA (inhibition constant), wild-type CPC acylase. To be noted: end-product inhibition of CPC conversion; pH 8.5. As to the method:
as §1

Assay [3] addresses T3, Pseudomonas sp. SE83 CPC acylase AcyII fivefold mutant F169αY/M31βL/F58βM/H70βS/I176βV (mI176) (Pseudomonas sp., UniProt P15558, F170Y/F297M/H309S/I415V/M270L).
T3 construct: made in house; host or cells: E. coli MC1061
The assay can be described thus: CPC hydrolysis kinetics (Lineweaver-Burk plot), fivefold mutant. To be noted: substrate CPC; purified enzyme; 0.1 M Tris-HCl pH 8.0, 37° C.; Lineweaver-Burk plot. As to the method: (§2) The enzyme activity of CPC acylase mutant to CPC was measured according to the method described by Park et al. with minor modifications as follows (Park, et al., Kor. J. Appl. Microbiol. Biotechnol. 23: 559-564, 1995). A substrate solution was prepared by dissolving CPC (purity 74.2%; CJ Corp., Korea) in 0.1 M Tris-HCl buffer solution (pH 8.0) at a concentration of 20 mg/ml and adjusting pH to 8 with 1 N NaOH. 20 μl of the CPC solution was mixed with 20 μl of the crude enzyme solution prepared above and the reaction mixture was incubated at 37° C. for 5 min. After the reaction, the mixture (200 μl) of 50 mM NaOH and 20% glacial acetic acid (1:2) was added thereto to stop the reaction. 200 μl of the supernatant recovered from the reaction mixture by centrifugation was mixed with 40 μl of 0.5% (w/v) PDAB (p-dimethylaminobenzaldehyde; Sigma, USA) dissolved in a methanol and the reaction mixture was incubated at 37° C. for 10 min. After the reaction, the absorbance of reaction mixture was measured at 415 nm and quantified by comparing with a calibration curve of standard material. At this time, 1 unit has been defined as the amount of enzyme capable to produce 1 μmole of 7-ACA from CPC per minute. Meanwhile, the specific activity of CPC acylase mutant for CPC was determined by measuring the amount of protein remaining in the enzyme solution according to the method described by Bradford (Bradford, M., Anal. Biochem. 72: 248-254, 1976) and representing it as an active unit corresponding to 1 mg of protein. The reactivity of CPC acylase mutant to CPC was determined by the following steps of adding the same amount of protein to a reaction mixture, performing an enzyme reaction for a fixed time, measuring the amount of 7-ACA produced in the reaction mixture, and representing it as a relative value. The end-product inhibition by 7-ACA was determined by adding a protein corresponding to the same active unit to a reaction mixture, performing an enzyme reaction for a fixed time; measuring the amount of 7-ACA produced in the reaction mixture, and representing it as a relative value.
(§3) E. coli MC1061 transformant containing the recombinant plasmid introduced with the wild-type or the inventive CPC acylase mutant gene was cultivated in 1 l of a terrific broth (1.2% Bacto-Trypton, 2.4% Yeast Extract, 0.4% glycerol, […]) containing […] of chloramphenicol at 30° C. for 16 hr to obtain a pre-culture solution. 10 ml of the pre-culture solution was inoculated into the same medium, and then, cultured at 25° C., 200 rpm for 48 hr with vigorous shaking. The culture solution was subjected to centrifugation at 4° C., 8,000 rpm for 10 min to separate a precipitate, and the precipitate washed twice with 20 mM Tris-HCl buffer solution (pH 8.0). […]

Assay [4] concerns Pseudomonas sp. SE83 CPC acylase AcyII fivefold mutant F169αY/M31βL/F58βM/H70βS/I176βV (mI176). Described as above. To be noted: substrate CPC; fivefold mutant vs wild-type. As to the method: as §2, §3

T3 sequence (P15558 240-774 M270L/F297M/H309S/I415V): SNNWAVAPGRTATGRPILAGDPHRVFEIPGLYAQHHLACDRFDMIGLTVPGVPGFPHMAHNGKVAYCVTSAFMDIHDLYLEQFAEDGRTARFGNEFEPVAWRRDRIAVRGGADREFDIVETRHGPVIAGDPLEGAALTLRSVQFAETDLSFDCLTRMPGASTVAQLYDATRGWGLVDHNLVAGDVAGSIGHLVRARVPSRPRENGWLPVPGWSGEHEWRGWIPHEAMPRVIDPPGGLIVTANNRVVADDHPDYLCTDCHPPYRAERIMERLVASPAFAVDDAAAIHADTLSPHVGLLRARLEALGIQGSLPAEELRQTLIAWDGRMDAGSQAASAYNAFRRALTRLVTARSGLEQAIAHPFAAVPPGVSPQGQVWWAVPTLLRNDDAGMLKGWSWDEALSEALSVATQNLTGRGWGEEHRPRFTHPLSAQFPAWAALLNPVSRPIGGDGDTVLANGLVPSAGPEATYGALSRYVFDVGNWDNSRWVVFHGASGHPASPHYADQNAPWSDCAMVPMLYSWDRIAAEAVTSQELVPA
T3 sequence (P15558 2-230 F170Y): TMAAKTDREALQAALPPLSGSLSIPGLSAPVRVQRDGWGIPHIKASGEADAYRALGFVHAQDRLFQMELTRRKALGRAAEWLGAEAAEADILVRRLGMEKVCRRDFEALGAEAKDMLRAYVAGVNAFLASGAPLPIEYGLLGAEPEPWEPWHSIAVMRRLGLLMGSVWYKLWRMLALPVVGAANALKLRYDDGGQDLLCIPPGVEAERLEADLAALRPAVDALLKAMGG

Take `CC(=O)OCC1=C(C(=O)O)N2C(=O)[C@@H](N)[C@H]2SC1` [7-ACA, 7-aminoacephalosporanic acid]: the Ki (commonly a measure of affinity in units of concentration, obtained from inhibition or displacement) was 1900 µM in assay [1] and 400 µM in assay [2].
On to `CC(=O)OCC1=C(C(=O)O)N2C(=O)[C@@H](NC(=O)CCC[C@@H](N)C(=O)O)[C@H]2SC1` [CPC, Cephalosporin C], for which, in assay [3], the Kcat is 2.4 s⁻¹ and the Kcat/Km is 300 M⁻¹ s⁻¹. In assay [4], the “higher reaction efficiency to CPC as compared with the wild-type enzyme” value was “about 15 fold” and the “lower Km value as compared with the wild-type enzyme” value is given as “about 6.3 fold”.
